Experimental data reported in publication PMC6896057, “Dual PDK1/Aurora Kinase A Inhibitors Reduce Pancreatic Cancer Cell Proliferation and Colony Formation” (Cancers, 2019).

What was measured:
Type in all cases: cell-based, human
[1] = tested on: phosphorylation of Aurora A at Thr288 in AsPC-1; test: Western blot, Aurora A phosphorylation at Thr288, nocodazole-synchronized cells; conditions: 10 µM, 1 h, nocodazole 200 ng/mL
Method: (§1) Lysates were then assessed by Western blotting using the indicated antibodies. Representative blots of at least three independent experiments are shown. In all blots, Akt total (A,B) and α-actinin (C,D) were used as loading control. In (A,B) membranes incubated with pAkt (Thr308) were stripped and re-incubated with anti Akt. The percentage of phosphorylated Akt is calculated by normalization to the loading control total Akt. In (C,D) membranes incubated with pAurora (Thr288) were stripped and re-incubated with anti-Aurora A. The percentage of phosphorylated Aurora A is calculated by normalization to the loading control α-actinin.
(§2) Cells (300,000 per well) from different cell lines were seeded in six-well plates. The next day, five wells were stimulated with nocodazole 200 ng/mL for 24 h. […] To analyze the expression of phosphorylated PLCγ, cells were incubated overnight in serum-free culture media. […] Supernatants were transferred in a 1.5 mL Eppendorf tube and protein concentrations were determined using the Direct Detect Assay-Free cards and the Direct Detect Spectrometer (Merck Millipore, Decantur, IL, USA). […]

[2] = tested on: phosphorylation of Aurora A at Thr288 in HPAF-II; test: as above; conditions: 10 µM, 1 h, nocodazole 200 ng/mL
Method: as §1, §2

[3] = tested on: PLK1 Thr210 phosphorylation in AsPC-1; test: Western blot, phosphorylation of PLK1 at Thr210, nocodazole-synchronized cells; conditions: 5 μM, 1 h, nocodazole 200 ng/mL
Method: (§3) Lysates were then assessed by Western blotting using the indicated antibodies. Representative blots of at least three independent experiments are shown. The percentage of phosphorylated PLCγ1 is calculated by normalization to the loading control GAPDH. […] The percentage of phosphorylated PLK1 is calculated by normalization to the loading control α-actinin. […] The percentage of phosphorylated Histone H3 is calculated by normalization to the loading control α-actinin.
(§4) Cells (300,000 per well) from different cell lines were seeded in six-well plates. The next day, five wells were stimulated with nocodazole 200 ng/mL for 24 h. […] To analyze the expression of phosphorylated PLCγ, cells were incubated overnight in serum-free culture media. […] Cells were then collected by scraping and lysed in cold radioimmunoprecipitation assay buffer (150 mM sodium chloride, 1.0% NP-40 or Triton X-100, 0.5% sodium deoxycholate, 0.1% sodium dodecyl sulphate, 50 mM Tris HCl, pH 8.0) supplemented with 1X Protease/Phosphatase Inhibitor Cocktail (100X stock, Sigma Aldrich, St. Louis, MO, USA). Lysates were sonicated at 4 °C and centrifuged at 10,000 g for 10 min at 4 °C. Supernatants were transferred in a 1.5 mL Eppendorf tube and protein concentrations were determined using the Direct Detect Assay-Free cards and the Direct Detect Spectrometer (Merck Millipore, Decantur, IL, USA). […]

[4] = tested on: PLK1 Thr210 phosphorylation in HPAF-II; test: as above; conditions: 5 μM, 1 h, nocodazole 200 ng/mL
Method: as §3, §4

[5] = tested on: phosphorylation of Akt at Thr308 in AsPC-1; test: Western blot, FBS-induced phosphorylation of Akt at Thr308; conditions: 5 μM, FBS 1 h
Method: as §1
(§5) Cells (300,000 per well) from different cell lines were seeded in six-well plates. The next day, five wells were stimulated with nocodazole 200 ng/mL for 24 h. Then four wells were treated for 2 h with the inhibitors of interest. To analyze the expression of phosphorylated PLCγ, cells were incubated overnight in serum-free culture media. […] Supernatants were transferred in a 1.5 mL Eppendorf tube and protein concentrations were determined using the Direct Detect Assay-Free cards and the Direct Detect Spectrometer (Merck Millipore, Decantur, IL, USA). […]

[6] = tested on: phosphorylation of Akt at Thr308 in HPAF-II; test: as above; conditions: 5 μM, FBS 1 h
Method: as §1, §5

[7] = tested on: PLCγ1 Tyr783 phosphorylation in AsPC-1; test: Western blot, EGF-induced phosphorylation of PLCγ1 at Tyr783; conditions: 5 μM, 30 min, then EGF 25 ng/mL 10 min
Method: as §3
(§6) Cells (300,000 per well) from different cell lines were seeded in six-well plates. The next day, five wells were stimulated with nocodazole 200 ng/mL for 24 h. Then four wells were treated for 2 h with the inhibitors of interest. To analyze the expression of phosphorylated PLCγ, cells were incubated overnight in serum-free culture media. […] Cells were then collected by scraping and lysed in cold radioimmunoprecipitation assay buffer (150 mM sodium chloride, 1.0% NP-40 or Triton X-100, 0.5% sodium deoxycholate, 0.1% sodium dodecyl sulphate, 50 mM Tris HCl, pH 8.0) supplemented with 1X Protease/Phosphatase Inhibitor Cocktail (100X stock, Sigma Aldrich, St. Louis, MO, USA). […] Supernatants were transferred in a 1.5 mL Eppendorf tube and protein concentrations were determined using the Direct Detect Assay-Free cards and the Direct Detect Spectrometer (Merck Millipore, Decantur, IL, USA). […]

[8] = tested on: PLCγ1 Tyr783 phosphorylation in HPAF-II; test: as above; conditions: 5 μM, 30 min, then EGF 25 ng/mL 10 min
Method: as §3, §6

CCN1CCN(C(=O)Cc2ccc(Nc3ncc(F)c(Nc4ccc(C(=O)Nc5ccccc5Cl)cc4)n3)cc2)CC1 [Aur I]
effect on phosphorylation of Aurora A at Thr288 [1]: efficiently reduced
effect on phosphorylation of Aurora A at Thr288 [2]: efficiently reduced
effect on phosphorylation of PLK1 at Thr210 [3]: reduction in the phosphorylation of PLK1
effect on phosphorylation of PLK1 at Thr210 [4]: reduction in the phosphorylation of PLK1

CNc1nc(-c2ccc3c(N)n[nH]c3c2)cc(N2C[C@@H](C(=O)NC3CCCCC3)CC[C@H]2C)n1 [GSK2334470]
effect on FBS-induced phosphorylation of Akt at Thr308 [5]: efficiently reduced
effect on FBS-induced phosphorylation of Akt at Thr308 [6]: efficiently reduced
effect on EGF-induced activation of PLCγ1 (Tyr783) [7]: strongly reduced
effect on EGF-induced activation of PLCγ1 (Tyr783) [8]: strongly reduced
